From patent publication US6756409B2, “Phenoxyphenyl alkanesulphonates” (priority 2001, dated 2004)

How the values were obtained:
[1] = Microsomal stability investigations; assay type: in vitro ADME; conditions: maximum possible bioavailability extrapolated from rat liver microsomes, 37° C., 15 minutes
Method: 4. Microsomal Stability Investigations
The metabolic stability of the compounds according to the invention can be measured in rat liver microsomes (in analogy to J. Pharmacol. Exp. Ther. 1997, 283, 46-58).
To determine the microsomal stability and extrapolate to the maximum possible bioavailability (Fmax) owing to the first-pass effect in the liver (phase 1 reactions), the substance is incubated in low concentration with microsomal protein, with addition of cofactors, at 37° C. for 15 minutes.
The incubation and the sampling take place on a modified automatic pipettor from Canberra Packard.

[2] = target: T1, rat CB1 receptor (Rattus norvegicus, UniProt P20272); test: Rat CB1 luciferase reporter gene test; assay type: cell-based; conditions: rat CHOCB1 reporter cell line, forskolin-stimulated luciferase activity
T1 construct: expressed in transfected cells; host or cells: CHO (CHOluc9-derived reporter line, by analogy with the CB2 line)
T1 sequence (P20272 whole entry): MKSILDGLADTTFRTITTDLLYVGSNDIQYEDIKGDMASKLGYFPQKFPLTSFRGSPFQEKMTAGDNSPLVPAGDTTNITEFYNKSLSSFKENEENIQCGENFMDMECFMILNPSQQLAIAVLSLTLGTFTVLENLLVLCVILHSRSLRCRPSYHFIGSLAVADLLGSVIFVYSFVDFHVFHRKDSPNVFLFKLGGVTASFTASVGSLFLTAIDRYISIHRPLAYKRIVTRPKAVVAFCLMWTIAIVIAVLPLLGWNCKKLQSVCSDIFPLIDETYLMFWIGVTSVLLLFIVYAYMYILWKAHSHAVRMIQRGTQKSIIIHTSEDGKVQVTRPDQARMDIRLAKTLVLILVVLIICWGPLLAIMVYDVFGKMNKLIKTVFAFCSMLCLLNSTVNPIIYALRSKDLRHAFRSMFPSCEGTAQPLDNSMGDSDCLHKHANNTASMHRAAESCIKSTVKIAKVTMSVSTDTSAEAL
Method: 1. Rats CB1 Luciferase Reporter Gene Test
Stock cultures of a rat CHOCB1 reporter cell line were prepared by the method described in WO-A-98/37061, page 55 et seq.
The following test protocol was used for the substance screening: the stock cultures were cultivated in 50% of Dulbecco's modified Eagle medium/50% F-12 (DMEM/F12) with 10% FCS at 37° C. under 10% CO2 and split 1:10 after 2 to 3 days in each case. Test cultures were seeded with 5000 cells per well in 96-well plates and cultured at 37° C. for 70 hours. The cultures were then cautiously washed with phosphate-buffered saline and reconstituted with serum-free Ultra-CHO medium (Bio-Whittaker). The substances dissolved in DMSO were diluted 1× in medium and pipetted into the test cultures (maximum DMSO final concentration in test mixture: 0.5%). 20 minutes later, forskolin was added and the cultures were then incubated in an incubator at 37° C. for 3 hours. […] Immediately thereafter luciferase substrate solution (2.5 mM ATP, 0.5 mM luciferin, 0.1 mM coenzyme A, 10 mM tricine, 1.35 mM MgSO4, 15 mM DTT, pH 7.8) was added and briefly shaken, and the luciferase activity was measured using a Hamamatsu camera system. […]
The IC50 values were calculated using the GraphPadPrism program (Hill equation, specifically: one-site competition).

[3] = Pharmacokinetics in the rat; assay type: in vivo; conditions: for AUCstand / Cmax,stand: standardized to 1 mg/kg; for half-life: terminal half-life
Method: 5. Pharmacokinetics in the Rat
The substance is infused through a Braunüle in a lateral tail vein directly into the blood stream over 15 minutes. A calibrated 20 ml syringe is used for accurate administration of the chosen dose and volume. A Braun Melsungen No. 152440/1 pump is used for the infusion.
The substance is administered as bolus by gavage.
Blood samples are collected from catheterized animals (jugular vein) in heparinized tubes. The blood is centrifuged and the plasma is prepared in a suitable manner for analysis (LC-MS-MS). The plasma is stored at <−15° C. until analysed.
AUCstand: the area, standardized to a dose of 1 mg/kg, under the plasma concentration/time curve;
Cmax,stand: the maximum plasma concentration after a single administration, standardized to a dose of 1 mg/kg;
tmax: the time at which the maximum plasma concentration is reached after a single dose;
t1/2: terminal half-life;
F: bioavailability; in this case the percentage, compared with i.v. administration, of the dose which is systemically available;
VSS: apparent volume of distribution at the steady state.

[4] = target: T2, CB1 receptor (Rattus norvegicus, UniProt P20272); test: Rat hypothermia agonism test; assay type: in vivo; conditions: oral administration
T2 construct: from tissue; host or cells: whole animal (rat), in vivo
T2 sequence (P20272 whole entry): as above
Method: The in vivo agonistic effect on the CB1 receptor was examined in the rat hypothermia assay.
Five minutes after determining the basal body temperature via an oesophageal temperature probe, the test substance is administered (orally). A control group receives, likewise orally, only the solvent for the test substances (Cremophors EL 1-10%+distilled water). The body temperature is measured 120 and 240 minutes after oral administration. The size of the group for each dose is 5-7 animals (rats).
Rat Hypothermia Agonism Test

[5] = tested on: chronic mechanical hyperalgesia in axotomized rats; test: Axotomy of sciatic branches in the rat (chronic pain model); assay type: in vivo; conditions: orally, acute administration, 60 minutes before the test
Method: 7. Axotomy of Sciatic Branches in the Rat (Chronic Pain Model)
Under pentobarbital anaesthesia, the trifurcation of a sciatic nerve is exposed, and the peroneal and tibial branches are axotomized after the nerves have been ligated proximal of the axotomy site. Control animals undergo a sham operation. After the operation, the axotomized animals develop chronic mechanical hyperalgesia. This hyperalgesia is tested, comparing with sham-operated animals, with the aid of a pressure transducer (electronic von Frey anesthesiometer, IITC Inc.—Life Science Instruments, Woodland Hills, Calif., USA).
The substance is administered by various administration routes (i.v., i.p., orally, i.t., i.c.v., transdermally) at various times before the pain testing.

Row | SMILES | Fmax [1] [%] | IC50 [2] [nM] | AUCstand ([3]; i.v. infusion, dose 0.3 mg/kg) [kg·h/L] | Cmax,stand ([3]; i.v. infusion, dose 0.3 mg/kg) [kg/L] | F ([3]; oral, dose 3 mg/kg, bioavailability compared with i.v. administration) [%] | AUCstand ([3]; oral, dose 3 mg/kg) [kg·h/L] | Cmax,stand ([3]; oral, dose 3 mg/kg) [kg/L] | Vd ([3]; plasma, iv, i.v. infusion, dose 0.3 mg/kg, apparent volume of distribution at steady state, read-out: VSS) [L/kg] | half-life ([3]; plasma, iv, i.v. infusion, dose 0.3 mg/kg) [h] | Tmax ([3]; plasma, oral, dose 3 mg/kg) [h] | half-life ([3]; plasma, oral, dose 3 mg/kg) [h] | ED−1° C. (effective dose for reducing the body temperature by 1° C.) [4] [mg/kg] | minimally effective dose reducing hyperalgesia [5] [mg/kg]
1 | Cc1c(Cl)cccc1Oc1cccc(OS(=O)(=O)CCCC(F)(F)F)c1 [Example 15] | 4 | – | – | – | – | – | – | – | – | – | – | – | –
2 | O=S(=O)(CCCC(F)(F)F)Oc1cccc(Oc2ccccc2OC(F)(F)F)c1 [Example 17] | 40 | 0.81 | – | – | – | – | – | – | – | – | – | – | –
3 | O=S(=O)(CCCC(F)(F)F)Oc1cccc(Oc2cccc(C(F)(F)F)c2Cl)c1 [Example 22] | – | – | 0.307 | 0.5978 | 33 | 0.102 | 0.0198 | 4.12 | 1.6 | 2.29 | 2.36 | 10 | 1
